PMC7265341, “Quantifying CDK inhibitor selectivity in live cells” (Nature Communications, 2020)
Where two headings read alike, the source gives them in different places.

How the values were obtained:
[1] = molecular target: CDK17/Cyclin Y (Homo sapiens, UniProt Q00537); assay: NanoBRET live-cell target engagement, CDK17-NanoLuc/Cyclin Y in HEK-293; assay type: binding; conditions: CDK17/Y; for IC50: read-out: IC50; for inhibition at 10 µM: read-out: Inhibition at 10µM (%)
[2] = molecular target: CDK14/Cyclin Y (Homo sapiens, UniProt O94921); assay: NanoBRET live-cell target engagement, CDK14-NanoLuc/Cyclin Y in HEK-293; assay type: binding; conditions: CDK14/Y, read-out: Inhibition at 10µM (%)
[3] = molecular target: CDK6/Cyclin D1 (Homo sapiens, UniProt Q00534); assay: NanoBRET live-cell target engagement, NanoLuc-CDK6/Cyclin D1 in HEK-293; assay type: binding; conditions: CDK6/D1, read-out: Inhibition at 10µM (%)
[4] = molecular target: CDK20/Cyclin H (Homo sapiens, UniProt Q8IZL9); assay: NanoBRET live-cell target engagement, NanoLuc-CDK20/Cyclin H in HEK-293; assay type: binding; conditions: CDK20/H, read-out: Inhibition at 10µM (%)
[5] = molecular target: CDK5/CDK5R1 (Homo sapiens, UniProt Q00535); assay: NanoBRET live-cell target engagement, CDK5-NanoLuc/CDK5R1 in HEK-293; assay type: binding; conditions: CDK5/CDK5R1, read-out: Inhibition at 10µM (%)
[6] = molecular target: T1, CDK11A/Cyclin L2 (Homo sapiens, UniProt Q9UQ88); assay: NanoBRET live-cell target engagement, CDK11A-NanoLuc/Cyclin L2 in HEK-293; assay type: binding; conditions: CDK11a/L2, read-out: Inhibition at 10µM (%)
T1 sequence (Q9UQ88 1-783): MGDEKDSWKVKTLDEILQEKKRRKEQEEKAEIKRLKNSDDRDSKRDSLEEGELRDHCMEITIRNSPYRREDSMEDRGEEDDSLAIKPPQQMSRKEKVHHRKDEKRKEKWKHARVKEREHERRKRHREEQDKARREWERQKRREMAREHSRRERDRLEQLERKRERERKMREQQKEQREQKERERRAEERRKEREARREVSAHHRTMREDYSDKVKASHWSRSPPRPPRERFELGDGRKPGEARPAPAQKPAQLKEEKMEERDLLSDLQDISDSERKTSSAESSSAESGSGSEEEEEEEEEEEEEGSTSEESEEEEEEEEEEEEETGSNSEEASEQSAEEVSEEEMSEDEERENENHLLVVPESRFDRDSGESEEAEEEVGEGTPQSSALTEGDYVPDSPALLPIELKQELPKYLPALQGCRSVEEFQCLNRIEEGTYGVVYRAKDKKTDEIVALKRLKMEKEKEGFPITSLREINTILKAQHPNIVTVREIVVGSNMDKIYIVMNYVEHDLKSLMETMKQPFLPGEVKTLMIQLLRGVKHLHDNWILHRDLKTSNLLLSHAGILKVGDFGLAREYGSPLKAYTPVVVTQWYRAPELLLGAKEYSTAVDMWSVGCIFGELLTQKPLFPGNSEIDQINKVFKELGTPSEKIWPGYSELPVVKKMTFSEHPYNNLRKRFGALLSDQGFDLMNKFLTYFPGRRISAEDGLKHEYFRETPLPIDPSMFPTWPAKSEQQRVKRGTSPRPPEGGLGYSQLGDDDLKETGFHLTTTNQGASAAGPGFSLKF

[7] = molecular target: CDK10/Cyclin L2 (Homo sapiens, UniProt Q15131); assay: NanoBRET live-cell target engagement, CDK10-NanoLuc/Cyclin L2 in HEK-293; conditions: for IC50: IC50 (nM), CDK10/L2; for inhibition at 10 µM: read-out: Inhibition at 10µM (%), CDK10/L2
[8] = molecular target: CDK7 (Homo sapiens, UniProt P50613); assay: NanoBRET live-cell target engagement, NanoLuc-CDK7 in HEK-293; assay type: binding; conditions: for inhibition at 10 µM: read-out: Inhibition at 10µM (%)
[9] = molecular target: CDK8/Cyclin C (Homo sapiens, UniProt P49336); assay: NanoBRET live-cell target engagement, NanoLuc-CDK8/Cyclin C in HEK-293; assay type: binding; conditions: for inhibition at 10 µM: read-out: Inhibition at 10µM (%)
[10] = molecular target: CDK15/Cyclin Y (Homo sapiens, UniProt Q96Q40); assay: NanoBRET live-cell target engagement, NanoLuc-CDK15/Cyclin Y in HEK-293; assay type: binding; conditions: CDK15/Y, read-out: Inhibition at 10µM (%)
[11] = molecular target: CDK9/Cyclin K (Homo sapiens, UniProt P50750); assay: NanoBRET live-cell target engagement, NanoLuc-CDK9/Cyclin K in HEK-293; assay type: binding; conditions: CDK9/K, read-out: Inhibition at 10µM (%)
[12] = molecular target: CDK18/Cyclin Y (Homo sapiens, UniProt Q07002); assay: NanoBRET live-cell target engagement, CDK18-NanoLuc/Cyclin Y in HEK-293; assay type: binding; conditions: CDK18/Y; for IC50: read-out: IC50; for inhibition at 10 µM: read-out: Inhibition at 10µM (%)
[13] = molecular target: CDK19/Cyclin C (Homo sapiens, UniProt Q9BWU1); assay: NanoBRET live-cell target engagement, NanoLuc-CDK19/Cyclin C in HEK-293; conditions: for inhibition at 10 µM: read-out: Inhibition at 10µM (%), CDK19/C
[14] = molecular target: CDK1/Cyclin E1 (Homo sapiens, UniProt P06493); assay: NanoBRET live-cell target engagement, CDK1-NanoLuc/Cyclin E1 in HEK-293; assay type: binding; conditions: CDK1/E1, read-out: Inhibition at 10µM (%)
[15] = molecular target: CDK4/Cyclin D1 (Homo sapiens, UniProt P11802); assay: NanoBRET live-cell target engagement, NanoLuc-CDK4/Cyclin D1 in HEK-293; assay type: binding; conditions: CDK4/D1, read-out: Inhibition at 10µM (%)
[16] = molecular target: CDK16/Cyclin Y (Homo sapiens, UniProt Q00536); assay: NanoBRET live-cell target engagement, CDK16-NanoLuc/Cyclin Y in HEK-293; assay type: binding; conditions: CDK16/Y; for IC50: read-out: IC50; for inhibition at 10 µM: read-out: Inhibition at 10µM (%)
[17] = molecular target: CDK11B/Cyclin L2 (Homo sapiens, UniProt P21127); assay: NanoBRET live-cell target engagement, CDK11B-NanoLuc/Cyclin L2 in HEK-293; assay type: binding; conditions: CDK11b/L2, read-out: Inhibition at 10µM (%)

Sequence of CDK5/CDK5R1 (Q00535 whole entry): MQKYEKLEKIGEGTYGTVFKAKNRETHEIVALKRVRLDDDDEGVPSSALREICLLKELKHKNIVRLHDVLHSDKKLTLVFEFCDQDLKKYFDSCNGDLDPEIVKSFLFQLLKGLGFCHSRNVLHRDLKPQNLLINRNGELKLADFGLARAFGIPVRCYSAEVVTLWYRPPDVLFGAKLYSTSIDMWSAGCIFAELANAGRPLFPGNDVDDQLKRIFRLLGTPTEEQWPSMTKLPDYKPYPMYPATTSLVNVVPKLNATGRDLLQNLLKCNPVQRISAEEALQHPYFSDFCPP
Sequence of CDK5/CDK5R1 (Q15078 whole entry partner): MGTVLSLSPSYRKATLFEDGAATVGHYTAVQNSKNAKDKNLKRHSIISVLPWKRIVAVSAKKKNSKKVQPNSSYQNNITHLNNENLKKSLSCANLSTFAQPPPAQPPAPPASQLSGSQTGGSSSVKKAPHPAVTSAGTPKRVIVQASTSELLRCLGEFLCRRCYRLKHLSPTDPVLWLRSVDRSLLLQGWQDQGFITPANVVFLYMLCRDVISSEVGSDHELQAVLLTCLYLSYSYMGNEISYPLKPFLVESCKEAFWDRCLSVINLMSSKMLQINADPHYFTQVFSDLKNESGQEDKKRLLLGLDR
Sequence of CDK4/Cyclin D1 (P11802 whole entry): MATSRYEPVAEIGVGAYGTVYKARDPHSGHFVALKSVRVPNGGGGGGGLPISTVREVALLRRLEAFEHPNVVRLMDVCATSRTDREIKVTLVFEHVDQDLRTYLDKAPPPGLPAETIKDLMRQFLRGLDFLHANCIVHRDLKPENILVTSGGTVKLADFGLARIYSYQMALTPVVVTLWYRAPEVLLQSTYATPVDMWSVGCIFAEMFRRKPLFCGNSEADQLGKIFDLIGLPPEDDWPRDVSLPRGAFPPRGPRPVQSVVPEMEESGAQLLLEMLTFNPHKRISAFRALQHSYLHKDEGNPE
Sequence of CDK4/Cyclin D1 (P24385 whole entry partner): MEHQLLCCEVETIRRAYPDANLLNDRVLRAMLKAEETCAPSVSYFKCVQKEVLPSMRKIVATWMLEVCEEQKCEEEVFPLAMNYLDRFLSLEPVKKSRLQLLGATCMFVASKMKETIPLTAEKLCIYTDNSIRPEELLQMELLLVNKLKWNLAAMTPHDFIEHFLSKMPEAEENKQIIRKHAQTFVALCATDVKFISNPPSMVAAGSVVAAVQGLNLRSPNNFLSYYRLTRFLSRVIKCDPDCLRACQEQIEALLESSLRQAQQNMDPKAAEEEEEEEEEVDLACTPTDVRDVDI
Sequence of CDK16/Cyclin Y (Q00536 whole entry): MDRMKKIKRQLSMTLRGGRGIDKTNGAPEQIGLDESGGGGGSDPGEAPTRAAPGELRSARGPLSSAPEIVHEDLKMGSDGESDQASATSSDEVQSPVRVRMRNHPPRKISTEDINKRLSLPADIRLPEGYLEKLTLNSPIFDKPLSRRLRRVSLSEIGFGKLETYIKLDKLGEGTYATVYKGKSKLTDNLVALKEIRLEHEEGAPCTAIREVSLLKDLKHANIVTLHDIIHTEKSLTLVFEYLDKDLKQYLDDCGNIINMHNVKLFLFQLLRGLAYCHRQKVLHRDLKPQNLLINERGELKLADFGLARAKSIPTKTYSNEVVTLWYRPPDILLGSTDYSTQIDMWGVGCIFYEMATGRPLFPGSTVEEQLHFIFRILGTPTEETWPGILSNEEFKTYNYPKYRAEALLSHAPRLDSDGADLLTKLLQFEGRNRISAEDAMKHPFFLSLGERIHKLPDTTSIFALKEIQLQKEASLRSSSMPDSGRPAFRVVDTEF
Sequence of CDK16/Cyclin Y (Q8ND76 whole entry partner): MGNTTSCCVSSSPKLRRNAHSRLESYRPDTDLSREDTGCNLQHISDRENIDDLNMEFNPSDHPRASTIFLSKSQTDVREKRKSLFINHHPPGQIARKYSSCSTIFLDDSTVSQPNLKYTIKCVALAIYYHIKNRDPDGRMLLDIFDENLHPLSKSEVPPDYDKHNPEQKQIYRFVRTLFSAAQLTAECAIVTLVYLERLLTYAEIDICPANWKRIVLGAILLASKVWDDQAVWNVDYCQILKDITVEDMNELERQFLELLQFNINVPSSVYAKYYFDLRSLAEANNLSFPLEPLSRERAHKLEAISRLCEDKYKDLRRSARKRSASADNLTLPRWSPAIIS
Sequence of CDK17/Cyclin Y (Q00537 whole entry): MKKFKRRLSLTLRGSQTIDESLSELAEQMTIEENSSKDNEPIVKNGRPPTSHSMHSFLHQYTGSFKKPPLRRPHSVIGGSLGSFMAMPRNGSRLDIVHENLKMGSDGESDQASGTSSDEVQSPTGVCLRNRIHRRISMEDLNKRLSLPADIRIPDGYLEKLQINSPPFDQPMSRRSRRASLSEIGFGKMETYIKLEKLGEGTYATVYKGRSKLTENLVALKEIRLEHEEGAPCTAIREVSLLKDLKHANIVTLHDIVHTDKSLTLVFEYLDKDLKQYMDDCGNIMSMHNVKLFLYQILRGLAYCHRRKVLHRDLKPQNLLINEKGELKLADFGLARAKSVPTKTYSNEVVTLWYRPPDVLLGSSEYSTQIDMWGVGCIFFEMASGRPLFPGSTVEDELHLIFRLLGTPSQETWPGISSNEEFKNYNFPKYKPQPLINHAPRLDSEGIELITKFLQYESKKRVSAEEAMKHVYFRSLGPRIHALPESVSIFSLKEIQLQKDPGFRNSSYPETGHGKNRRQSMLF
Sequence of CDK17/Cyclin Y (Q8ND76 whole entry partner): as the sequence (Q8ND76 whole entry partner) above
Sequence of CDK15/Cyclin Y (Q96Q40 whole entry): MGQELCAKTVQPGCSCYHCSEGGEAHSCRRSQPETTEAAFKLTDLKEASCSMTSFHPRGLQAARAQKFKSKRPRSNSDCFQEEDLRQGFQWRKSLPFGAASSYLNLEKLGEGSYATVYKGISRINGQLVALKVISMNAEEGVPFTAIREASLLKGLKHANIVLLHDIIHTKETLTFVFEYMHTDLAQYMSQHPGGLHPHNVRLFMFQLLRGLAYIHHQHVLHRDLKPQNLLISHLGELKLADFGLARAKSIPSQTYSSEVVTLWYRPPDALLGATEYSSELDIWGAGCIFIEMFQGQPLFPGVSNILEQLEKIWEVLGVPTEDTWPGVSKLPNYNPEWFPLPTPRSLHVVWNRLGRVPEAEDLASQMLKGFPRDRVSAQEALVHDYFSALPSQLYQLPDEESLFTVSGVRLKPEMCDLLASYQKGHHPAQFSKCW
Sequence of CDK15/Cyclin Y (Q8ND76 whole entry partner): as the sequence (Q8ND76 whole entry partner) above
Sequence of CDK19/Cyclin C (Q9BWU1 whole entry): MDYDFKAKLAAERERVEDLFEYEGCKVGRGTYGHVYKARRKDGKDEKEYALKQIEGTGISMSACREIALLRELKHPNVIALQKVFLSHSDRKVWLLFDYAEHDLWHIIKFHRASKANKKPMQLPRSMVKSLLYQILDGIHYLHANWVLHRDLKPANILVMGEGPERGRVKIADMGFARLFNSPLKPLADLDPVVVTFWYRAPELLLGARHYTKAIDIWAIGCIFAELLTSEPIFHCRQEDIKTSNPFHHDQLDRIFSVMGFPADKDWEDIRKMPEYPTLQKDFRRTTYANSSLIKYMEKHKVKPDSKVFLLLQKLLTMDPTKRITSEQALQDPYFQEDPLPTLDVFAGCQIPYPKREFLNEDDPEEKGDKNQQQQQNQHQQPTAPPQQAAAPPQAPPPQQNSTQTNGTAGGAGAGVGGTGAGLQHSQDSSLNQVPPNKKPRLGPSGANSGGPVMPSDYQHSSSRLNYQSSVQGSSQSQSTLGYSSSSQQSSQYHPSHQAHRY
Sequence of CDK19/Cyclin C (P24863 whole entry partner): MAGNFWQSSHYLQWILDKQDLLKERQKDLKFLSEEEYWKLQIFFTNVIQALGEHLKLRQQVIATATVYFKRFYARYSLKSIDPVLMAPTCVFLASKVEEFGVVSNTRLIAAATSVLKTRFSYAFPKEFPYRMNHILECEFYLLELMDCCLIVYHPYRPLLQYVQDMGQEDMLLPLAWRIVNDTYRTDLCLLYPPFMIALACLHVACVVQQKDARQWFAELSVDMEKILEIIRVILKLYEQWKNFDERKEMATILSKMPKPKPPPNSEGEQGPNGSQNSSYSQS
Sequence of CDK18/Cyclin Y (Q07002 whole entry): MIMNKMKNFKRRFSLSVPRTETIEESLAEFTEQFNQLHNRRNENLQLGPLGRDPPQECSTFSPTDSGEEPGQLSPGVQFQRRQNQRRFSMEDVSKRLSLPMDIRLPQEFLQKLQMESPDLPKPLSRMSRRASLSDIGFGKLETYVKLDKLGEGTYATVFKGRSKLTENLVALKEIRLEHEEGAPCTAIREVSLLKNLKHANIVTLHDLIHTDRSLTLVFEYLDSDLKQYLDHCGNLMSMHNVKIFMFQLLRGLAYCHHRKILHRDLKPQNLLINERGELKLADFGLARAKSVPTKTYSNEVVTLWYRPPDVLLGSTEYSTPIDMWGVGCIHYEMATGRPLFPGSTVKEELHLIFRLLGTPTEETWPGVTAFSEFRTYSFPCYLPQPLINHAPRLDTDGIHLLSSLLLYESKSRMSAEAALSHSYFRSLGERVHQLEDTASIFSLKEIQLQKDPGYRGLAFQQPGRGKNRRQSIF
Sequence of CDK18/Cyclin Y (Q8ND76 whole entry partner): as the sequence (Q8ND76 whole entry partner) above
Sequence of CDK8/Cyclin C (P49336 whole entry): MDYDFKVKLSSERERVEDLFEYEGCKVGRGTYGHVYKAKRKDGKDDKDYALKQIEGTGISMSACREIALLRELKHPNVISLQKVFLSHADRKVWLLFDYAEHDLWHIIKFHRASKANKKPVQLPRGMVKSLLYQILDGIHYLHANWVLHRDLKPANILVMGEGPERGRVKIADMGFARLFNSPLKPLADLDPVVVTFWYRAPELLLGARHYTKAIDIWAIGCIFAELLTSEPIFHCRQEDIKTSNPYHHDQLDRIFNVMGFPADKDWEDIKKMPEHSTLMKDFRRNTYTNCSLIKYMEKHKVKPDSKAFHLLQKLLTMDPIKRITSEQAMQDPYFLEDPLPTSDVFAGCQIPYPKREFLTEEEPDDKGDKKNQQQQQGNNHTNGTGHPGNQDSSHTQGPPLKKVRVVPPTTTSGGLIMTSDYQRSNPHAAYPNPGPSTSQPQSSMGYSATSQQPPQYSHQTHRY
Sequence of CDK8/Cyclin C (P24863 whole entry partner): as the sequence (P24863 whole entry partner) above

CN1CCN(Cc2ccc(NC(=O)Nc3ccc(Oc4ccnc(N)n4)cc3)cc2C(F)(F)F)CC1 [K03861]
IC50 ([1]; average (± SEM where n=3)): 190 ± 60 nM | inhibition at 10 µM ([1]; average): 89.9% | IC50 ([1]; experiment 1): 80 nM | inhibition at 10 µM ([1]; experiment 1): 89.1% | IC50 ([1]; experiment 2): 281 nM | inhibition at 10 µM ([1]; experiment 2): 90.7% | IC50 ([1]; experiment 3): 200 nM | inhibition at 10 µM ([2]; average): 84.9% | inhibition at 10 µM ([2]; experiment 1): 87.3% | inhibition at 10 µM ([2]; experiment 2): 82.6% | inhibition at 10 µM ([3]; average): 35.2% | inhibition at 10 µM ([3]; experiment 1): 23.8% | inhibition at 10 µM ([3]; experiment 2): 46.5% | inhibition at 10 µM ([4]; experiment 1): 40% | inhibition at 10 µM ([4]; experiment 2): 64.4% | inhibition at 10 µM ([5]; average): 23.7% | inhibition at 10 µM ([5]; experiment 1): 27.8% | inhibition at 10 µM ([5]; experiment 2): 19.6% | inhibition at 10 µM ([6]; average): 14.5% | inhibition at 10 µM ([6]; experiment 1): 19.2% | inhibition at 10 µM ([6]; experiment 2): 9.8% | IC50 ([7]; average (± SEM where n=3)): 500 ± 100 nM | IC50 ([7]; experiment 1): 310 nM | IC50 ([7]; experiment 2): 530 nM | IC50 ([7]; experiment 3): 670 nM | inhibition at 10 µM ([7]; average): 79.8% | inhibition at 10 µM ([7]; experiment 1): 79.7% | inhibition at 10 µM ([7]; experiment 2): 79.9% | inhibition at 10 µM ([8]; CDK7, average): 81.8% | IC50 ([8]; CDK7, experiment 1, read-out: IC50): 76 nM | inhibition at 10 µM ([8]; CDK7, experiment 1): 83.6% | IC50 ([8]; CDK7, experiment 2, read-out: IC50): 59 nM | inhibition at 10 µM ([8]; CDK7, experiment 2): 79.9% | IC50 ([8]; CDK7, experiment 3, read-out: IC50): 55 nM | IC50 ([8]; live HEK-293, 2 h, mean ± S.E.M. (n=3) or mean (n=2), read-out: IC50 for CDK/cyclin complexes, CDK7): 63 nM | inhibition at 10 µM ([9]; CDK8/C, average): 95.6% | IC50 ([9]; CDK8/C, experiment 1, read-out: IC50): 2.1 nM | inhibition at 10 µM ([9]; CDK8/C, experiment 1): 96.7% | IC50 ([9]; CDK8/C, experiment 2, read-out: IC50): 5 nM | inhibition at 10 µM ([9]; CDK8/C, experiment 2): 94.5% | IC50 ([9]; CDK8/C, experiment 3, read-out: IC50): 2.2 nM | IC50 ([9]; live HEK-293, 2 h, mean ± S.E.M. (n=3) or mean (n=2), read-out: IC50 for CDK/cyclin complexes, CDK8/C): 3 nM | inhibition at 10 µM ([10]; average): 80.7% | inhibition at 10 µM ([10]; experiment 1): 82.9% | inhibition at 10 µM ([10]; experiment 2): 78.6% | inhibition at 10 µM ([11]; average): 85.1% | inhibition at 10 µM ([11]; experiment 1): 84.3% | inhibition at 10 µM ([11]; experiment 2): 85.8% | IC50 ([12]; average (± SEM where n=3)): 400 ± 100 nM | inhibition at 10 µM ([12]; average): 93.7% | IC50 ([12]; experiment 1): 144 nM | inhibition at 10 µM ([12]; experiment 1): 88.2% | IC50 ([12]; experiment 2): 408 nM | inhibition at 10 µM ([12]; experiment 2): 99.2% | IC50 ([12]; experiment 3): 610 nM | IC50 ([13]; IC50 (nM), CDK19/C, experiment 1): 1.4 nM | IC50 ([13]; IC50 (nM), CDK19/C, experiment 2): 2.3 nM | IC50 ([13]; IC50 (nM), CDK19/C, experiment 3): 0.5 nM | IC50 ([13]; IC50 (nM), CDK19/Y (so in the source), average (± SEM where n=3)): 1.4 ± 0.5 nM | IC50 ([13]; IC50 for CDK/cyclin complexes, CDK19/C, live HEK-293, 2 h, mean ± S.E.M. (n=3) or mean (n=2)): 1.4 ± 0.5 nM | inhibition at 10 µM ([13]; average): 96.4% | inhibition at 10 µM ([13]; experiment 1): 95.5% | inhibition at 10 µM ([13]; experiment 2): 97.3% | inhibition at 10 µM ([14]; average): 70.4% | inhibition at 10 µM ([14]; experiment 1): 66.2% | inhibition at 10 µM ([14]; experiment 2): 74.6% | inhibition at 10 µM ([15]; average): 78.8% | inhibition at 10 µM ([15]; experiment 1): 79.9% | inhibition at 10 µM ([15]; experiment 2): 77.6% | IC50 ([16]; average (± SEM where n=3)): 260 ± 70 nM | IC50 ([16]; experiment 1): 140 nM | inhibition at 10 µM ([16]; experiment 1): 74.3% | IC50 ([16]; experiment 2): 365 nM | inhibition at 10 µM ([16]; experiment 2): 80.7% | IC50 ([16]; experiment 3): 270 nM | inhibition at 10 µM ([17]; average): 9.9% | inhibition at 10 µM ([17]; experiment 1): 15.5% | inhibition at 10 µM ([17]; experiment 2): 4.3%
